“Also recorded” adds a separate entry of the source. No end group written: not given here.
What was measured:
[1] = system: NOS2; assay: NOS2 mRNA expression in HNPE cells by RT-PCR; assay type: cell-based, human; details: 100 nM ET-1, 24 hours, qualitative, vs non-treated controls
Text: Utilizing the powerful technique of RT-PCR on mRNA transcripts of NOS2, the amplified products were separated on an agarose gel and compared with untreated control RT_PCR products. […] RT-PCR products of the β-actin housekeeping gene were also amplified and visualized on an agarose gel as a mRNA isolation control.

[2] = system: rat optic nerve; assay: Anterograde axonal transport in rat optic nerve after intravitreal injection (35S-methionine pulse label); assay type: in vivo; details: for effect of ET-1 on anterograde axonal transport: intravitreal 2 nmol
Text: Newly synthesized proteins undergoing anterograde axonal transport in the optic nerve were pulse-labeled in either the presence or absence of endothelin as modified from previously published methods (van Biesen et al., 1995). Modifications to previously published methods were minimal and involved the replacement of a distilled water vehicle for resuspension of radiolabeled precursors with either HEPES buffered ET-1 or HEPES vehicle buffer alone. ^35S-Methionine (Easytag EXPRESS PROTEIN LABELING MIX, Dupont-NEN Life Sciences, Boston, Mass.) was lyophilized and resuspended in either vehicle alone (10 mM HEPES, pH 7.4, Sigma Chemical Co., St Louis, Mo.) or in vehicle containing 500 μM ET-1 (Bachem, Belmont, Calif.). Rats were anesthetized by Metofane inhalation, and 0.8 mCi (4 μl) of radiolabel in vehicle either plus or minus ET-1 (final dose 2 mmols), was injected into the vitreous of the left eye using a 30 gauge needle attached to a Hamilton syringe (microliter #710, 22s gauge, Hamilton Co., Reno, Nev.) by polyethylene tubing (PE-20, Clay Adams Brand, Becton Dickson and Co., Sparks, Md.) (van Biesen et al., 1995). In one experiment, ET-3 was substituted for ET-1, using the same methods (2 mmol dose, 28 hour ISI, N=7 for controls, N=7 for experimentals). […] One minute after injection, all retinas appeared normal in color. (Based upon these initial observations, further observations of the retinas were not performed). Information on the dose-related effect(s) of intravitreal ET-1 in this species (i.e. rat) were unavailable, and physiological/pathological concentrations of endothelin in the optic nerve head's microenvironment are generally unknown. Therefore, dose selection was made on the basis of a small pilot study, using these methods and measuring the total pulse-labeled protein axonally transported into the rat optic nerve. (An N of 3 rats in every group was used only for the pilot study, 4 hour ISI, data not shown). […] However, significant effects on axonal transport (4 hour ISI) were only seen in the pilot study for the 2 mmol dose. […] Possible effect(s) on non-assayed ocular tissues were not considered in dose selection, as data on these were unavailable for either acute or chronic intravitreal ET-1 administration, in rats.
This technique was employed to determine if endothelin-1 also affected the axonal transport in the optic nerve of rats, which is severely compromised in glaucoma. Harvest and preparation of pulse-labeled optic nerves in animals, wherein animals were anesthetized with metofane at specified times after injection and sacrificed by decapitation. Injection-sacrifice intervals were selected based upon the published characterizations of anterograde axonal transport in rat optic nerve for specific marker proteins associated with specific classes of axonally transported materials (Table 4) (Elluru et al., 1995; Garner and Lasek, 1981; Garner and Lasek, 1982; Jahn et al., 1985). Seven vehicle-treated animals and seven endothelin-treated animals were sacrificed at each of the specified times (4, 24, 28, 32, 36 hours and 4, 21 days). Optic nerves were removed, flash frozen with crushed dry ice, and sectioned frozen. Nerves were sectioned to aid complete homogenization, and to provide additional data for future studies. The frozen sections (2 mm in length) were numbered as segments 1-4 (from proximal to distal), and glass-on glass homogenized in 100 μlof BUST sample buffer (2% β-mercaptoethanol, 8M urea, 1% SDS, 0.1M Tris, 0.02% phenol red, pH 7.4). A 25% aliquot of each homogenized segment was counted in a liquid scintillation counter, and counts were corrected for decay, quench, and counting efficiency.

[3] = system: NOS-2; assay: NOS-2 mRNA expression in retina after intravitreal injection, RT-PCR; assay type: in vivo, Brown Norway rats; details: intravitreal 2 mmoles, 4 hours or 24 hours post-injection
Experimental: Elevated NOS-2 expression and peroxynitrite labeling are observed in glaucomatous retina and optic nerve head and are considered to be neurotoxic, which promote retinal ganglion cell death. ET-1 was injected in the left eye (OS) of rats while the right eye served as an contralateral control. Saline was also injected in some rats.

[4] = system: human non-pigmented ciliary epithelial (HNPE) cells; assay: Nitric oxide release from HNPE cells (nitrite, Griess colorimetric assay); assay type: cell-based; details: 100 nM ET-1, 24 hours; control 14.4±1.8 μM nitrite
Experimental: The effect of endothelin-1 (ET-1) and PD-142893, an ETA/B receptor antagonist, on nitric oxide (“NO”) release from human non-pigmented ciliary epithelial (HNPE) cells are illustrated in FIG. 6. The NO released into the culture media from HNPE cells grown in 24-well plates and treated with ET-1 (100 nM) for 24 hours was converted to nitrites. The total amount of nitrites was measured using the Griess colorimetric assay. HNPE cells were pre-treated with PD-142893 (1 μM) for 30 minutes and then 100 nM ET-1 was also added and incubated for 24 hours. The values in FIG. 6 represent the mean±SEM of a ratio between the nitrite produced under experimental conditions divided by the nitrite produced in control cells, which corresponded to 14.4±1.8 μM and controls were expressed as 100% (n=3). Statistical significance of the nitrite released from ET-1 (100 nM) treatment versus the control are denoted with an asterisk (“*”). Statistical significance of the nitrite released from PD-142893+ET-1 (100 nM) treatment versus that of ET-1 (100 nM) are denoted as a double asterisk (“**”) The statistical differenced were determined by one-way ANOVA and Student-Newman-Keuls multiple comparison test (p<0.05). Thus, addition of ET-1 increased the nitrite levels nearly 2-fold when compared to control cells or cells treated with PD-142893.

“ET-1: active 21 amino acid residue endothelin peptide (Bachem) (CSCSSLMDKECVYFCHLDIIW; ends and bridges not checked; cysteine pairing not given here; UniProt P05305 53-73, looked up)” was tested, and the “NOS2 mRNA levels” value [1] was “elevated mRNA levels of NOS2”, the “total pulse-labeled protein axonally transported into the rat optic nerve (pilot study)” value ([2]; 0.3, 0.4, and 2 mmol doses intravitreal, 4 hour ISI, significant only for the 2 mmol dose) was “trend of increasingly enhanced axonal transport” and the “effect of ET-1 on anterograde axonal transport” value (shortened to “effect”) ([2]; ISI 4 hr, fast component, MBO/small tubulovesicles) was “significant enhancement; also recorded: increased”. For the same substance, the “effect” value ([2]; ISI 24 hr, fast component, MBO/small tubulovesicles) was “significant enhancement; also recorded: increased”, the “effect” value ([2]; ISI 28 hr, fast component, MBO/mitochondria) was “significant reduction; also recorded: decreased” and the “effect” value ([2]; ISI 32 hr, fast component, MBO/mitochondria) was “significant reduction; also recorded: decreased”. For the same substance, the “effect” value ([2]; ISI 36 hr, fast component, MBO/mitochondria) was “significant reduction; also recorded: decreased”, the “effect” value ([2]; ISI 4 days, SCa, cytoplasmic matrix proteins) was “significant reduction; also recorded: decreased” and the “effect” value ([2]; ISI 21 days, SCb, cytoskeletal proteins) was “significant reduction; also recorded: decreased”. The “mRNA expression of inducible nitric oxide synthase-2 (NOS-2) in the retina” value [3] was “causes the mRNA expression of inducible nitric oxide synthase-2 (NOS-2)” and the “increase of nitrite levels compared to control cells” value [4] was roughly 2 fold.

— patent US20030176356A1, “Endothelin antagonists and endothelin-converting enzyme inhibitors for the treatment of glaucoma” (University of North Texas Health Science Center, priority 2001, published 2003)
